Measured values: patent US20130116251A1, “Novel HSP90 Inhibitor” (Nippon Kayaku Kabushiki Kaisha, priority 2005, published 2013)
Structures can show the parent of a compound that is named as a salt. Where two headings read alike, the source gives them in different places.

Legend:
[1] = target: rHSP90; assay: HSP90 binding assay (BIACORE SPR; inhibition of binding between rHSP90 and fixed herbimycin A); settings: concentration inhibiting binding between rHSP90 (50 μg/mL) and fixed herbimycin A by 50%, BIACORE-X SPR; read-out: HSP90 inhibitory activity IC50
Text: The HSP90 binding assay system is a system for detecting the change of mass as SPR signal caused by the binding between herbimycin A fixed on a sensor chip and rHSP90 by BIACORE-X, in which 17-(6-amino hexylamino)herbimycin A is fixed through a carboxyl group on the surface of the sensor chip (CM5, BIACORE) on which carboxymethyldextran has been introduced. The method was according to the protocol of BIACORE. In addition, 17-(6-aminohexylamino)herbimycin A was synthesizes as described below.
rHSP90 (Stressgen Biotechnologies Corp., Victoria, BC Canada) at 50 μg/mL was exposed for 10 seconds to the surface of the sensor chip on which herbimycin A was fixed and the SPR signal (numerical value of interaction) was detected.
After mixing rHSP90 protein (5×10^−7M (50 μg/mL)) with the triazole derivative of the present invention, the mixture was exposed for 10 seconds to the surface of the sensor chip on which herbimycin A was fixed, and the SPR signal was measured by BIACORE-X.
Next, using following formula (1), the inhibitory activity (binding inhibition rate (%)) of the compound of the present invention to the binding between rHSP90 and fixed herbimycin A was obtained.
binding inhibition rate(%)=((b−s)/b)×100 Formula (1)
wherein b is the SPR signal when the compound of the present invention is not added to the sample: s is the SPR signal when the compound of the present invention is added to the sample.

[2] = tested on: Human breast cancer cells (MCF7); assay: Antiproliferative activity on MCF7 cells (methylene blue method); assay type: cell-based; settings: read-out: Antiproliferative activity IC50
Description: Human breast cancer cells (MCF7) were treated with samples of various concentrations of known HSP90 inhibitors (that is, geldanamycin, herbimycin, radicicol and PU3) and the compounds of the present invention for 72 hours to confirm the effect of the triazole derivatives of the present invention on the cell growth. The cell ratio after the drug treatment was evaluated by measuring 660 nm absorbance by a microplate reader (BioRad) after staining the cells with the methylene blue method.
Cells were distributed to wells of 96 well plates at 2000 cells per well and treated with drugs 24 hours later. Further, the medium was removed 72 hours later and the cells were fixed by adding 50 μl of methanol and standing at room temperature for 2 minutes. After removing methanol, 100 μl of a staining solution was added and stained for 30 minutes. After washing 3 times with 200 μl of distilled water, 3% HCl solution was added, and the 660 nm absorbance of methylene blue was measured by a microplate reader (BioRad).
Next, the antiproliferative activity rate (%) was obtained by the formula (2) below.
Antiproliferative activity rate(%)=((B−A)/B)×100 Formula (2)
wherein B is 660 nm absorbance of the sample when the compound of the present invention is not added, and A is 660 nm absorbance of the sample when the compound of the present invention is added.
From the concentration of the triazole derivative of the present invention and the antiproliferative activity rate, the concentration was obtained using the above formula, at which the cell growth was suppressed by 50% by comparing with the control, and termed an IC50 value.
The antiproliferative activity rate (%) was obtained for SH-b04, SH-b05 and SH-b06 described above by a similar manner to that of the triazole derivatives of the present invention.

[3] = MCF7 cells, 72 hours treatment, 660 nm absorbance after methylene blue staining
[4] = Homo sapiens, MCF7, 72 h, MCF7 cells, 72 hours treatment, 660 nm absorbance after methylene blue staining

IC50 [1]	IC50 [2, 4]	Molecule	IC50 [2, 3]	IC50 ([2]; Homo sapiens, MCF7, 72 h)
160 nM	6.7 nM	COc1cccc(-n2c(-c3cc(C(C)C)c(O)cc3O)n[nH]c2=O)c1 [OH-a09, 5-(2,4-dihydroxy-5-isopropyl-phenyl)-4-(3-methoxy-phenyl)-2,4-dihydro-[1,2,4]triazol-3-one]	–	–
–	14 nM	COc1ccc(-n2c(-c3cc(C(C)C)c(O)cc3O)n[nH]c2=O)cc1OC [OH-a10, 5-(2,4-dihydroxy-5-isopropyl-phenyl)-4-(3,4-dimethoxy-phenyl)-2,4-dihydro-[1,2,4]triazol-3-one]	–	–
190 nM	> 20000 nM	CC(C)c1cc(-c2n[nH]c(=O)n2-c2ccc(C(=O)O)cc2)c(O)cc1O [OH-a12, 4-[3-(2,4-dihydroxy-5-isopropylphenyl)-5-oxo-1,5-dihydro-[1,2,4]triazol-4-yl]-benzoic acid]	–	–
190 nM	720 nM	CC(C)c1cc(-c2n[nH]c(=O)n2-c2ccc(C(=O)N3CCOCC3)cc2)c(O)cc1O [OH-a14]	–	–
350 nM	390 nM	COCCn1c(-c2cc(C(C)C)c(O)cc2O)n[nH]c1=O [OH-a32, 5-(2,4-dihydroxy-5-isopropyl-phenyl)-4-(2-methoxy-ethyl)-2,4-dihydro-[1,2,4]triazol-3-one]	–	–
370 nM	3300 nM	CC(C)c1cc(-c2n[nH]c(=O)n2C(CO)CO)c(O)cc1O [OH-a33, 5-(2,4-dihydroxy-5-isopropyl-phenyl)-4-(2-hydroxy-1-hydroxymethyl-ethyl)-2,4-dihydro-[1,2,4]triazol-3-one]	–	–
430 nM	98 nM	CC(C)c1cc(-c2nnc(S(=O)(=O)CCCN(C)C)n2-c2ccc(O)cc2)c(O)cc1O [SFN2-a11•TFA, 4-[5-(3-dimethylamino-propylsulfonyl)-4-(4-hydroxy-phenyl)-4H-[1,2,4]triazol-3-yl]-6-isopropyl-benzene-1,3-diol]	–	–
1000 nM	5200 nM	CC(C)c1cc(-c2nnc(S(=O)(=O)CCCN(C)C)n2C(C)C)c(O)cc1O [SFN2-a21•TFA]	–	–
1400 nM	4100 nM	CC(C)c1cc(-c2nnc(S(=O)(=O)CCCN3CCCCC3)n2C(C)C)c(O)cc1O [SFN3-a21•TFA, 4-isopropyl-6-[4-isopropyl-5-(3-piperidine-1-yl-propane-1-sulfonyl)-4H-[1,2,4]triazol-3-yl]-benzene-1,3-diol]	–	–
230 nM	9900 nM	COc1ccc(-n2c(-c3cc(C(C)C)c(O)cc3O)nnc2S(=O)(=O)Cc2cccnc2)cc1 [SFN4-a08, 4-isopropyl-6-[4-(4-methoxy-phenyl)-5-(pyridin-3-ylmethanesulfonyl)-4H-[1,2,4]triazol-3-yl]-benzene-1,3-diol]	–	–
430 nM	3900 nM	COc1ccc(-n2c(-c3cc(C(C)C)c(O)cc3O)nnc2S(=O)(=O)Cc2ccc[n+]([O-])c2)cc1 [SFN5-a08, 4-isopropyl-6-[4-(4-methoxy-phenyl)-5-(1-oxy-pyridin-3-ylmethanesulfonyl)-4H-[1,2,4]triazol-3-yl]-benzene-1,3-diol]	–	–
580 nM	550 nM	COc1ccc(-n2c(-c3cc(C(C)C)c(O)cc3O)nnc2S(=O)(=O)CC(=O)N(C)C)cc1 [SFN6-a08, 2-[5-(2,4-dihydroxy-5-isopropyl-phenyl)-4-(4-methoxy-phenyl)-4H-[1,2,4]triazol-3-sulfonyl]-N,N-dimethyl-acetamide]	–	–
–	> 20000 nM	CC(C)c1cc(-c2nnc(S(C)(=O)=O)n2CCN2CCOCC2)c(O)cc1O [SFN-a26, 4-isopropyl-6-[5-methanesulfonyl-4-(2-molpholin-4-ylethyl)-4H-[1,2,4]triazol-3-yl]-benzene-1,3-diol]	–	–
–	3100 nM	COc1ccc(-n2c(SC)nnc2-c2cc(C(C)C)c(O)cc2O)cc1 [SMe-a08, 4-isopropyl-6-[4-(4-methoxy-phenyl)-5-methylsulfanyl-4H-[1,2,4]triazol-3-yl]-benzene-1,3-diol]	–	–

Second part, the molecule before the results:

Molecule	IC50 [1]	IC50 [2, 4]	IC50 [2, 3]	IC50 ([2]; Homo sapiens, MCF7, 72 h)
4-bromo-6-{5-methylsulfanyl-4-[4-(morpholin-4-yl)-phenyl]-4H-[1,2,4]triazol-3-yl}-benzene-1,3-diol trifluoroacetate [SMe-d01-TF]	600 nM	–	5500 nM	–
CC(C)c1cc(-c2n[nH]c(=O)n2-c2cnc(N3CCOCC3)nc2)c(O)cc1O [OH-a17, 5-(2,4-dihydroxy-5-isopropyl-phenyl)-4-[2-(molpholin-4-yl)-pyrimidin-5-yl]-2,4-dihydro-[1,2,4]triazol-3-one]	220 nM	26 nM	–	–
CC(C)c1cc(-c2n[nH]c(=O)n2N2CCCCC2)c(O)cc1O [OH-a24•TFA, 5-(2,4-dihydroxy-5-isopropyl-phenyl)-4-piperidin-1-yl-2,4-dihydro-[1,2,4]triazol-3-one]	1100 nM	790 nM	–	–
CC(C)c1cc(-c2n[nH]c(=O)n2CCN2CCOCC2)c(O)cc1O [OH-a26•HCl, 5-(2,4-dihydroxy-5-isopropyl-phenyl)-4-(2-morpholin-4-yl-ethyl)-2,4-dihydro-[1,2,4]triazol-3-one]	180 nM	600 nM	–	–
CC(C)c1cc(-c2n[nH]c(=O)n2CCCN2CCOCC2)c(O)cc1O [OH-a27, 5-(2,4-dihydroxy-5-isopropyl-phenyl)-4-[3-(molpholin-4-yl)-propyl]-2,4-dihydro-[1,2,4]triazol-3-one]	240 nM	220 nM	–	–
CC(C)c1cc(-c2n[nH]c(=O)n2CCCN2CCCC2=O)c(O)cc1O [OH-a30, 5-(2,4-dihydroxy-5-isopropyl-phenyl)-4-[3-(2-oxo-pyrrolidin-1-yl)propyl]-2,4-dihydro-[1,2,4]triazol-3-one]	140 nM	1100 nM	–	–
CC#CCc1cc(-c2n[nH]c(=O)n2-c2ccc(CN3CCOCC3)cc2)c(O)cc1O [OH-c02, 5-[5-(but-2-ynyl)-2,4-dihydroxy-phenyl]-4-[4-(morpholin-4-ylmethyl)-phenyl]-2,4-dihydro-[1,2,4]triazol-3-one]	220 nM	140 nM	–	–
C#CCc1cc(-c2n[nH]c(=O)n2-c2ccc(CN3CCOCC3)cc2)c(O)cc1O [OH-e02, 5-[2,4-dihydroxy-5-(prop-2-ynyl)-phenyl]-4-[4-(morpholin-4-ylmethyl)-phenyl]-2,4-dihydro-[1,2,4]triazol-3-one]	150 nM	240 nM	–	–
CCCCn1c(Cc2cc(OC)c(OC)c(OC)c2)nc2c(N)ncnc21 [PU3, reference compound]	–	–	91000 nM	–
Oc1cc(O)c(-c2n[nH]c(=S)n2-c2ccc(N3CCOCC3)cc2)cc1Br [SH-d01, 4-bromo-6-{5-mercapto-4-[4-(morpholin-4-yl)-phenyl]-4H-[1,2,4]triazol-3-yl}-benzene-1,3-diol]	–	580 nM	–	–
COC1=C2C[C@@H](C)C[C@H](OC)[C@H](O)[C@@H](C)/C=C(\C)[C@H](OC(N)=O)[C@@H](OC)/C=C\C=C(/C)C(=O)NC(=CC1=O)C2=O [geldanamycin, reference compound]	–	12 nM	–	–
CO[C@H]1[C@@H](OC)C[C@H](C)[C@@H](OC)C2=CC(=O)C=C(NC(=O)/C(C)=C/C=C\[C@H](OC)[C@@H](OC(N)=O)/C(C)=C/[C@@H]1C)C2=O [herbimycin, reference compound]	–	–	–	160 nM
C[C@@H]1C[C@H]2O[C@@H]2/C=C\C=C\C(=O)Cc2c(Cl)c(O)cc(O)c2C(=O)O1 [radicicol, reference compound]	–	19 nM	–	–
